Measured values reported in patent US7253282B2 (Hoffman-La Roche Inc., priority 2004, dated 2007).

What was measured:
[1] = biological target: T1, GST-LXRα-LBD (human LXR alpha, aa 164 to 447) (Homo sapiens, UniProt Q13133); test: Radioligand binding assay (SPA), LXR alpha; conditions: GST-LXRα-LBD on SPA beads, read-out: LXRalpha Binding IC50
T1 construct: human LXR alpha (aa 164 to 447); made in house; host or cells: E. coli BL21(pLysS)
T1 sequence (Q13133 164-447): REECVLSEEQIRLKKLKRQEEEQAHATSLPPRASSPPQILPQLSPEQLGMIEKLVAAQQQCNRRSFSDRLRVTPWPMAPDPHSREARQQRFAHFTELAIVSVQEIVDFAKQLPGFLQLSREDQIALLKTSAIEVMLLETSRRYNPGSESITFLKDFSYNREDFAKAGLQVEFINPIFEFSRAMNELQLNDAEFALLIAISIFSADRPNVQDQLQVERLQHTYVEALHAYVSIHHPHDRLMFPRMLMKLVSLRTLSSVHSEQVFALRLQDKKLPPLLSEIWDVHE
Description: (§1) Mammalian expression vectors were constructed to express full-length human LXR alpha and LXR beta. Bacterial expression vectors were constructed to produce glutathione-s-transferase (GST) fused to the ligand binding domains (LBD) of human LXR alpha (aa 164 to 447) and human LXR beta (aa 155 to 460). To accomplish this, the portions of the sequences encoding the LBDs were amplified from full-length clones by PCR and then subcloned into the plasmid vectors. Final clones were verified by DNA sequence analysis (Willy et al., Genes Dev. 1995, 9:1033-45; Song et al., Proc Natl Acad Sci USA. 1994, 91:10809-13).
(§2) Induction, expression, and purification of GST-LBD fusion proteins were performed in E. coli strain BL21(pLysS) cells by standard methods (Ref: Current Protocols in Molecular Biology, Wiley Press, edited by Ausubel et al).
(§3) LXR alpha and LXR beta receptor binding were assayed in buffer consisting of 50 mM HEPES, pH 7.4, 10 mM NaCl, 5 mM MgCl2. For each 96-well reaction, 500 ng of GST-LXRα-LBD or 700 ng of GST-LXR beta-LBD fusion proteins were bound to 80 μg or 40 μg SPA beads (Pharmacia Amersham) respectively, in a final volume of 50 μl by shaking. […] All binding assays were performed in 96-well plates and the amount of bound ligand was measured on a Packard TopCount using OptiPlates (Packard). Dose response curves were measured within a range of concentration from 10^−10 M to 10^−4 M.

[2] = biological target: T2, GST-LXR beta-LBD (human LXR beta, aa 155 to 460) (Homo sapiens, UniProt P55055); test: Radioligand binding assay (SPA), LXR beta; conditions: GST-LXR beta-LBD on SPA beads, read-out: LXRbeta Binding IC50
T2 construct: human LXR beta (aa 155 to 460); made in house; host or cells: E. coli BL21(pLysS)
T2 sequence (P55055 155-460): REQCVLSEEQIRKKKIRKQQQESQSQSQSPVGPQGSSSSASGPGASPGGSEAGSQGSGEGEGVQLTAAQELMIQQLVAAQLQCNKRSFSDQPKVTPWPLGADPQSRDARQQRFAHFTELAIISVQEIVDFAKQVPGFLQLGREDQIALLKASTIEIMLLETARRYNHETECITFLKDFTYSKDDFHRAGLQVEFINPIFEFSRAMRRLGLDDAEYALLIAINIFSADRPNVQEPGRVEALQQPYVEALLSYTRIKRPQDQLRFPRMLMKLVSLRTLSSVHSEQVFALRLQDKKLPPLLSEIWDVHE
Description: as §1, §2, §3

IC50 [1] | IC50 [2] | Structure (SMILES)
1.5 µM | 1.4 µM | Cc1nn(C)c(Cl)c1S(=O)(=O)N(CC(F)(F)F)[C@H]1CC[C@H](C(O)(C(F)(F)F)C(F)(F)F)CC1 [Example 17]
0.02 µM | 0.07 µM | O=S(=O)(c1ccccc1)N(CC(F)(F)F)[C@H]1CC[C@H](C(O)(C(F)(F)F)C(F)(F)F)CC1 [Example 1, trans N-(2,2,2-trifluoro-ethyl)-N-[4-(2,2,2-trifluoro-1-hydroxy-1-trifluoromethyl-ethyl)-cyclohexyl]-benzenesulfonamide]
